# Tests used:
# [1] = biological target: T1, CDK2/Cyclin E1 (Homo sapiens, UniProt P24941); assay: HotSpot kinase inhibition assay (radiometric, Histone H1 substrate); type: biochemical; conditions: 10 μM ATP, read-out: Kinase Assay (CDK2/CCNE): IC50
# Protocol: Inhibition of CDK2/CCNE1 activities in the presence of compounds of the present disclosure was evaluated using the HotSpot™ assay (proprietary to Reaction Biology Corporation). In the assay, CDK2/Cyclin E1 (Signalchem C29-18G) catalyzed the transfer of radioactive phosphate to amino acid residues of Histone H1 (Sigma, H5505), which are detected radiometrically.
# Reactions contained 20 mM HEPES pH 7.5, 10 mM MgCl2, 1 mM EGTA, 2 mM DTT, 0.02% Brij35, 0.02 mg/mL BSA, 0.1 mM Na3VO4, 1% DMSO, 1.5 nM CDK2/Cyclin E1, 10 μM ATP, and 20 μM Histone H1.
# CDK2/Cyclin E1 and Histone H1 were mixed in reaction buffer. To this mixture dose titrations of inhibitors in 100% DMSO were added in by acoustic transfer. The compound mixtures were incubated for 20 minutes, then the kinase reactions were initiated by the addition of a mixture of ATP and ^33P ATP for final concentrations of 10 μM total ATP, 20 μM Histone H1, and 1.5 nM CDK2/Cyclin E1. The reactions were carried out for 120 minutes, then spotted on a P81 ion exchange filter paper, and extensively washed with 0.75% phosphoric acid. The resulting radioactive counts were normalized to yield % activity, plotted against compound concentration, and fit to a four-parameter equation to determine the IC50 for each compound.
# [2] = biological target: T1, CDK2/Cyclin E1; assay: CDK2/Cyclin E1 Caliper LabChip EZ Reader mobility shift assay; type: biochemical; parameters: purchased Eurofins 14-475; conditions: read-out: Caliper Assay (CDK2/CCNE1): IC50
# In short: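 Mobility-shift kinase assay: compound titrations preincubated 30 min with enzyme and ATP, reaction started with 5-FAM-QSPKKG-CONH2 peptide. Final 2.5 nM CDK2/Cyclin E1, 100 μM ATP, 1.5 μM peptide, HEPES pH 7.5; stopped with EDTA after 100 min. IC50 from four-parameter fit of normalized conversion ratio.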
SMILES,IC50 [1] [nM],IC50 [2] [nM]
"CNC(=O)[C@@H](NC(=O)C1CN(C(=O)c2cnn(Cc3ccccc3)c2)CC12CN(C(=O)C1CC1(C)C)C2)[C@@H](C)OC (stereo partly drawn) [I-2, 6-(1-benzyl-1H-pyrazole-4-carbonyl)-2-(2,2-dimethylcyclopropane-1-carbonyl)-N-((2S,3R)-3-methoxy-1-(methylamino)-1-oxobutan-2-yl)-2,6-diazaspiro[3.4]octane-8-carboxamide]",10000 to 100000,
CNC(=O)[C@@H](NC(=O)C1CN(C(=O)c2cnn(Cc3ccccn3)c2)CC12CN(C(=O)C1CC1(C)C)C2)[C@@H](C)OCc1ccccc1 (stereo partly shown) [I-11],≤ 1000,100 to 1000
CNC(=O)[C@@H](NC(=O)C1CN(C(=O)c2cnn(Cc3ccccc3)c2)CC12CN(C(=O)C1CC1(C)C)C2)[C@@H](C)O (stereo partly shown) [I-88 mixture],10000 to 100000,
CNC(=O)[C@@H](NC(=O)[C@H]1CN(C(=O)c2cnn(Cc3ccccc3)c2)CC12CN(C(=O)OC(C)(C)C)C2)[C@@H](C)OCc1ccccc1 [I-3B],1000 to 10000,> 10000
CNC(=O)[C@@H](NC(=O)C1CN(C(=O)c2cnn(Cc3ccccc3)c2)CC12CN(C(=O)C1CC1(C)C)C2)[C@@H](C)OCc1cccc(C#N)c1 (stereo partly shown) [I-6],> 100000,
CNC(=O)[C@@H](NC(=O)[C@@H]1CN(C(=O)c2cn[nH]c2)CC12CN(C(=O)C1CC1(C)C)C2)[C@@H](C)OCc1ccccc1 (stereo partly shown) [I-5A],≤ 1000,
COC[C@H]1CCCN(C(=O)[C@@H](NC(=O)[C@@H]2CN(C(=O)c3cncs3)CC23CN(C(=O)[C@H]2CC2(C)C)C3)[C@@H](C)O[C@H](C)C2CCCCC2)C1 [I-466],≤ 1000,≤ 10
C[C@@H](OCC1CCCCC1)[C@H](NC(=O)[C@@H]1CN(C(=O)c2cnn(Cc3ccccc3)c2)CC12CN(C(=O)[C@H]1CC1(C)C)C2)C(C)(C)O [I-281],≤ 1000,≤ 10
CNC(=O)[C@@H](NC(=O)C1CN(C(=O)c2cnn(CC3CCCCC3)c2)CC12CN(C(=O)C1CC1(C)C)C2)[C@@H](C)OCc1ccccc1 (stereo partly shown) [I-10],≤ 1000,100 to 1000
CC1(C)C[C@@H]1C(=O)N1CC2(CN(C(=O)c3cnn(Cc4ccccc4)c3)C[C@H]2C(=O)NCc2ccc(C3CCCCC3)nn2)C1 [I-377],≤ 1000,100 to 1000
CNC(=O)[C@@H](NC(=O)[C@H]1CN(C(=O)c2cn[nH]c2)CC12CN(C(=O)C1CC1(C)C)C2)[C@@H](C)OCc1ccccc1 (stereo partly shown) [I-5B],1000 to 10000,
CNC(=O)[C@@H](NC(=O)C1CN(C(=O)c2cnn(Cc3ccncc3)c2)CC12CN(C(=O)C1CC1(C)C)C2)[C@@H](C)OCc1ccccc1 (stereo partly shown) [I-13],≤ 1000,100 to 1000
"COC[C@H]1CCCN(C(=O)[C@@H](NC(=O)[C@@H]2CN(C(=O)c3cncs3)CC23CN(C(=O)[C@H]2CC2(C)C)C3)[C@@H](C)OCC2CCCCC2)C1 [I-196A, (S)—N-((2S,3R)-3-(cyclohexylmethoxy)-1-((S)-3-(methoxymethyl)piperidin-1-yl)-1-oxobutan-2-yl)-2-((S)-2,2-dimethylcyclopropanecarbonyl)-6-(thiazole-5-carbonyl)-2,6-diazaspiro[3.4]octane-8-carboxamide]",≤ 1000,≤ 10
"CNC(=O)[C@@H](NC(=O)C1CN(C(=O)c2cnn(C)c2)CC12CN(C(=O)C1CC1(C)C)C2)[C@@H](C)OCc1ccccc1 (stereo partly drawn) [I-14, N-((2S,3R)-3-(benzyloxy)-1-(methylamino)-1-oxobutan-2-yl)-2-(2,2-dimethylcyclopropane-1-carbonyl)-6-(1-methyl-1H-pyrazole-4-carbonyl)-2,6-diazaspiro[3.4]octane-8-carboxamide]",1000 to 10000,1000 to 10000
CNC(=O)[C@@H](NC(=O)[C@H]1CN(C(=O)c2cnn(Cc3ccccc3)c2)CC12CN(C(=O)C1CC(C)(C)C1)C2)[C@@H](C)OCc1ccccc1 [I-4B],> 100000,
CNC(=O)[C@H](COCc1ccccc1)NC(=O)C1CN(C(=O)c2cnn(Cc3ccccc3)c2)CC12CN(C(=O)C1CC1(C)C)C2 (stereo partly shown) [I-1],1000 to 10000,
CNC(=O)[C@@H](NC(=O)C1CN(C(=O)c2cnn(Cc3ccccc3)c2)CC12CN(C(=O)C1CC1(C)C)C2)[C@@H](C)OCC1CCCCC1 (mixture of isomers) [I-12],≤ 1000,

SMILES,IC50 [1] [nM],IC50 [2] [nM]
CNC(=O)[C@@H](NC(=O)[C@@H]1CN(C(=O)c2cnn(Cc3ccccc3)c2)CC12CN(C(=O)C1CC(C)(C)C1)C2)[C@@H](C)OCc1ccccc1 [I-4A],10000 to 100000,
C[C@H](CNC(=O)C1CN(C(=O)c2cnn(Cc3ccccc3)c2)CC12CN(C(=O)C1CC1(C)C)C2)OCc1ccccc1 (stereo partly shown) [I-7],≤ 1000,
CNC(=O)[C@@H](NC(=O)[C@@H]1CN(C(=O)c2cnn(Cc3ccccc3)c2)CC12CN(C(=O)CC(C)(C)C)C2)[C@@H](C)OCc1ccccc1 [I-62A],,100 to 1000
CNC(=O)[C@@H](NC(=O)[C@H]1CN(C(=O)c2cnn(Cc3ccccc3)c2)CC12CN(C(=O)C(C)(C)C)C2)[C@@H](C)OCc1ccccc1 [I-65B],,> 10000
CNC(=O)[C@@H](NC(=O)[C@@H]1CN(C(=O)c2cnn(Cc3ccccc3)c2)CC12CN(C(=O)[C@H]1CC1(C)C)C2)[C@@H](C)OCc1cccc(O)c1 [I-262],,100 to 1000
CNC(=O)[C@@H](NC(=O)[C@@H]1CN(C(=O)c2cnn(Cc3ccccc3)c2)CC12CN(C(=O)C(C)(C)C#N)C2)[C@@H](C)OCc1ccccc1 [I-76A],,1000 to 10000
"CNC(=O)C(NC(=O)[C@@H]1CN(C(=O)c2cncs2)CC12CN(C(=O)C(C)(C)C1CC1)C2)c1cccc(C2CCCCC2)n1 (stereo partly drawn) [I-410, (8S)—N-(1-(6-cyclohexylpyridin-2-yl)-2-(methylamino)-2-oxoethyl)-2-(2-cyclopropyl-2-methylpropanoyl)-6-(thiazole-5-carbonyl)-2,6-diazaspiro[3.4]octane-8-carboxamide]",,10 to 100
COC[C@H]1CCCN(C(=O)[C@@H](NC(=O)[C@@H]2CN(C(=O)c3cncs3)CC23CN(C(=O)[C@H]2CC2(C)C)C3)[C@@H](C)OCc2ccc(F)cc2)C1 [I-318],,≤ 10
CNC(=O)[C@H](CSCc1ccccc1)NC(=O)[C@@H]1CN(C(=O)c2cnn(Cc3ccccc3)c2)CC12CN(C(=O)[C@H]1CC1(C)C)C2 [I-225],,100 to 1000
C[C@H](OC1CCN(C(=O)[C@@H]2CN(C(=O)c3cnn(Cc4ccccc4)c3)CC23CN(C(=O)[C@H]2CC2(C)C)C3)CC1)c1ccccc1 [I-275],,100 to 1000
CNC(=O)[C@@H](NC(=O)[C@H]1CN(C(=O)c2cnn(Cc3ccccc3)c2)CC12CN(C(=O)C1(CCOC)CC1)C2)[C@@H](C)OCc1ccccc1 [I-102B],,> 10000
CNC(=O)C(NC(=O)[C@@H]1CN(C(=O)c2cncs2)CC12CN(C(=O)[C@H]1CC1(C)C)C2)C(O)Cc1ccccc1 (stereo partly shown) [I-356],,> 10000
[2H]C([2H])([2H])NC(=O)C(NC(=O)[C@@H]1CN(C(=O)c2cncs2)CC12CN(C(=O)[C@H]1CC1(C)C)C2)c1cccc(N2CCOCC2)n1 (stereo partly shown) [I-18],,1000 to 10000
CNC(=O)C(NC(=O)[C@@H]1CN(C(=O)c2cncs2)CC12CN(C(=O)[C@H]1CC1(C)C)C2)c1cccc(N2CC3(COC3)C2)n1 (stereo partly shown) [I-427],,1000 to 10000
CO[C@@H]1CC[C@H](NC(=O)[C@@H]2CN(C(=O)c3cnn(Cc4ccccc4)c3)CC23CN(C(=O)[C@H]2CC2(C)C)C3)C1 [I-248],,> 10000
COC(=O)[C@H](CO)NC(=O)[C@@H]1CN(C(=O)c2cnn(Cc3ccccc3)c2)CC12CN(C(=O)[C@H]1CC1(C)C)C2 [I-209A],,1000 to 10000
CC1(C)C[C@@H]1C(=O)N1CC2(CN(C(=O)c3cnn(Cc4ccccc4)c3)C[C@@H]2C(=O)N[C@H]2CCCN(C(=O)c3ccccc3)C2)C1 [I-83B],,> 10000

# Reference: patent US20240174680A1, “CDK2 INHIBITORS AND METHODS OF USING THE SAME” (Cedilla Therapeutics, Inc., priority 2021, published 2024)
